Reference: US20070071727A1, “Melanocytes in therapy of neurodegenerative diseases” (priority 2003, published 2007)

Tests used:
[1] = tested on: Parkinson's melanocytes and normal adult control melanocytes; test: short time exposure (24 h), DNA synthesis by 3HdT incorporation and scintillation counts; assay type: cell-based, human; details: 24 h exposure; 0.5 μg/ml to 5.0 μg/ml
control melanocytes = assay type: cell-based, human; details: 10 days exposure; only at the highest concentration step 5.0 μg/ml

SMILES | difference in vulnerability between Parkinson's melanocytes and normal adult control melanocytes (DNA synthesis, 3HdT incorporation) [1] | impact on the growth of the control melanocytes (control melanocytes)
CCCCC[C@H](O)/C=C/[C@H]1[C@H](O)CC(=O)[C@@H]1C/C=C\CCCC(=O)O [PGE2] | no significant different in vulnerability | –
CCCCC[C@H](O)/C=C/[C@H]1C=CC(=O)[C@@H]1C/C=C\CCCC(=O)O [PGA2] | no significant different in vulnerability | negative impact on the growth
CCCCC[C@H](O)/C=C/[C@H]1C(=O)C=C[C@@H]1C/C=C\CCCC(=O)O [PGJ2] | no significant different in vulnerability | negative impact on the growth
CCCCC[C@H](O)/C=C/[C@@H]1[C@@H](C/C=C\CCCC(=O)O)[C@@H](O)C[C@H]1O [PGF2a] | no significant different in vulnerability | –
